# Data taken from EP1075186B1, “METHOD OF HSV PROPHYLAXIS” (The Children's Hospital Research Foundation, priority 1998, dated 1999).
# “And” between values parts separate entries of the source, which are not always exact repeats. Equal entries are not always repeated.
# Legend:
# HSV-2 strain 186 = test: Mouse genital HSV-2 model, intravaginal prophylaxis; type: in vivo, Swiss Webster mice; conditions: Table 21; for Virus Isolated / Dead: 2% intravaginal, one treatment just prior to HSV-2 challenge, 15 mice; for Virus Isolated: number of animals; for Dead: observed to day 21 PI
# Experimental: Sixty female Swiss Webster mice pretreated with medroxyprogesterone acetate were randomized to four groups of 15 to receive either Saline (control), 2 % Acyclovir, 2 % Compound 96, or 0.5% Compound 96. Animals were anesthetized by intraperitoneal injection of sodium pentabarbital and then administered 15 µl of control or test compound intravaginally in one treatment. They were then immediately challenged by intravaginal instillation with 15 µl of a suspension containing 10^4 plaque forming units HSV-2 strain 186. Vaginal swabs were collected on days 1 and 2 post-inoculation (PI) to assess the effect of treatment on vaginal replication in the genital tract. In addition, all animals were examined daily until day 21 PI for mortality and signs of infection (erythema, hair loss and hind limb paralysis).
# VZV = test: Plaque reduction assay, VZV; type: cell-based; design: EC50 VZV Plaque: unit not given beside the values
# Experimental: Two days prior to use, HFF cells are plated into six well plates and incubated at 37°C with 5% CO2 and 90% humidity. On the date of assay, the drug is made up at twice the desired concentration in 2X MEM and then serially diluted 1:5 in 2X MEM using six concentrations of drug. The initial starting concentration isusually 200 µg/ml down to 0.06 µg/ml. The virus to be used is diluted in MEM containing 10% FBS to a desired concentration which will give 20 - 30 plaques per well. […] The plates are then incubated for one hour with shaking every fifteen minutes. After the incubation period, an equal amount of 1% agarose was added to an equal volume of each drug dilution. This will give final drug concentrations beginning with 100 µg/ml and ending with 0.03 µg/ml and a final agarose overlay concentration of 0.5%. […] At the end of 4-6 hr incubation period, the stain is aspirated, and plaques counted using a stereomicroscope at 10X magnification. […] After addition of the drug, the plates are incubated for ten days. • 2. On days three and six an additional 1 ml overlay with equal amounts of 2X MEM and 1% agarose are added. The procedure for the liquid overlay plaque assay is similar to that using the agarose overlay. The procedure for adding the virus is the same as for the regular plaque assay. The drugs are made up in a concentration to be used in MEM with 2% FBS. […]
# EBV = EBV screening test (IMN); type: cell-based; conditions: human gammaherpesvirus 4, Table 19
# HSV-1 [1] = test: Cytopathic effect inhibition assay, HSV-1; type: cell-based; conditions: Human alphaherpesvirus 1; Table 19; read-out: EC50 HSV-1 CPE
# Experimental: (§1) Newborn human foreskin were obtained as soon as possible after circumcisions were performed and placed in minimal essential medium (MEM) containing vacomycin, fungizone, penicillin, and gentamycin, at the usual concentrations, for four hours. The medium was then removed, the foreskin minced into small pieces and washed repeatedly until red cells were no longer present. The tissue was then trypsinized using trypsin at 0.25% with continuous stirring for 15 minutes at 37°C in a CO2 incubator. At the end of each 15 minute period, the tissue was allowed to settle to the bottom of the flask. The supernatant containing cells was poured through sterile cheesecloth into a flask containing MEM and 10% fetal bovine serum. The flask containing the medium was kept on ice through out the trypsinizing procedure. After each addition of cells, the cheesecloth was washed with a small amount of MEM containing serum. Fresh trypsin was added each time to the foreskin pieces and the procedure repeated until no more cells became available. The cell containing medium was then centrifuged at 1000 RPM at 4°C for ten minutes. The supernatant liquid was discarded and the cells resuspended in a small amount of MEM with 10% FBS. The cells were then placed in an appropriate number of 25 cm^2 tissue culture flasks. As cells became confluent and needed trypsinization, they were gradually expanded into larger flasks. […]
# HSV-2 = test: Cytopathic effect inhibition assay, HSV-2; type: cell-based; conditions: Human alphaherpesvirus 2; Table 19; read-out: EC50 HSV-2 CPE
# Experimental: as §1
# HSV-1 [2] = test: Plaque reduction assay, HSV-1; type: cell-based; conditions: Human alphaherpesvirus 1; Table 19
# Experimental: Two days prior to use, HFF cells are plated into six well plates and incubated at 37°C with 5% CO2 and 90% humidity. On the date of assay, the drug is made up at twice the desired concentration in 2X MEM and then serially diluted 1:5 in 2X MEM using six concentrations of drug. The initial starting concentration isusually 200 µg/ml down to 0.06 µg/ml. The virus to be used is diluted in MEM containing 10% FBS to a desired concentration which will give 20 - 30 plaques per well. […] The plates are then incubated for one hour with shaking every fifteen minutes. After the incubation period, an equal amount of 1% agarose was added to an equal volume of each drug dilution. This will give final drug concentrations beginning with 100 µg/ml and ending with 0.03 µg/ml and a final agarose overlay concentration of 0.5%. […] At the end of 4-6 hr incubation period, the stain is aspirated, and plaques counted using a stereomicroscope at 10X magnification. The procedure for the liquid overlay plaque assay is similar to that using the agarose overlay. The procedure for adding the virus is the same as for the regular plaque assay. The drugs are made up in a concentration to be used in MEM with 2% FBS. […] For CMV and VZV, no antibody in the overlay is utilized. For the CMV assay, additional medium without new drug is added on day six and allowed to incubate for a total of 11 days. […]
# HCMV [3] = test: Plaque reduction assay, HCMV; type: cell-based; conditions: Human betaherpesvirus 5, Table 19
# Experimental: Two days prior to use, HFF cells are plated into six well plates and incubated at 37°C with 5% CO2 and 90% humidity. On the date of assay, the drug is made up at twice the desired concentration in 2X MEM and then serially diluted 1:5 in 2X MEM using six concentrations of drug. The initial starting concentration isusually 200 µg/ml down to 0.06 µg/ml. The virus to be used is diluted in MEM containing 10% FBS to a desired concentration which will give 20 - 30 plaques per well. The media is then aspirated from the wells and 0.2 ml of virus is added to drug toxicity wells. The plates are then incubated for one hour with shaking every fifteen minutes. After the incubation period, an equal amount of 1% agarose was added to an equal volume of each drug dilution. This will give final drug concentrations beginning with 100 µg/ml and ending with 0.03 µg/ml and a final agarose overlay concentration of 0.5%. The drug agarose mixture is applied to each well in 2 ml volume and the plates then incubated for three days, after which the cells were stained with a 1.5 % solution of neutral red. At the end of 4-6 hr incubation period, the stain is aspirated, and plaques counted using a stereomicroscope at 10X magnification.
# The procedure is essentially the same as for HSV analysis with the following minor changes. […]
# HCMV [4] = conditions: Table 19
# Experimental: as §1
# HFF cells = test: Cell proliferation assay; type: cell-based, human; conditions: Table 20; RAPIDLY GROWING CELLS
# Experimental: On the day of the assay, drugs are diluted serially in MEM containing 10% FBS at increments of 1:5 covering a range from 100 μg/ml to 0.03 μg/ml. For drugs that have to be solubilized in DMSO, control wells […] MEM containing 10% DMSO. The media from the wells is then aspirated and 2 ml of each drug concentration is then added to each well. The cells are then incubated in a CO2 incubator at 37°C for 72 hours. At the end of this time, the media-drug solution is removed and the cells washed. […] The cell-media mixture is then pipetted up and down vigorously to break up the cell suspension and 0.2 ml of the mixture is added to 9.8 ml of Isoton III and counted using a Coulter Counter. Each sample is counted three times with three replicate wells per sample.
# [5] = 2%, mean log10 viral titers ± SEM, infected animals only
smiles,measurement,setting,value
Nc1nc2c(ncn2COCCO)c(=O)[nH]1 [Acyclovir],Virus Isolated,HSV-2 strain 186,12
same,Virus Isolated,HSV-2 strain 186; listed as acyclovir,12/15
same,Dead,HSV-2 strain 186,12
same,Dead,HSV-2 strain 186; listed as acyclovir,12/15
same,Vaginal Virus Titer Day 1,HSV-2 strain 186; [5],1.96 ± 0.38 log10
same,Vaginal Virus Titer Day 2,HSV-2 strain 186; [5],3.82 ± 0.38 log10
same,EC50,"VZV; Human alphaherpesvirus 3, Table 19",3.2 µg/mL
same,EC50 VZV Plaque,"VZV; Table 19, listed as ACV",4.4 and 3.1 and 3.0
same,EC50,EBV,6 µg/mL
same,EC50,HSV-1 [1],0.2 µg/mL
same,EC50,HSV-2,0.7 µg/mL
same,EC50,HSV-1 [2],0.2 µg/mL
Nc1nc2c(ncn2COC(CO)CO)c(=O)[nH]1 [DHPG],EC50,HCMV [3],0.7 µg/mL
same,EC50 HCMV CPE,HCMV [4],0.8 µg/mL
"O=c1[nH]c(=O)n([C@@H]2O[C@H](CO)[C@@H](O)[C@@H]2F)cc1I [FIAU, 2'-fluoro-5-iodo-arabinosyl-uracil]",TOXICITY ASSAYS - IC50 CELL PROLIFERATION,HFF cells,3.3 MCG/ML and 8.4 MCG/ML
